{"source": "patent US8367830B2", "about": "“Methods for the identification of phosphatidylinositol kinase interacting molecules and for the purification of phosphatidylinositol kinase proteins” (Cellzome AG, priority 2009, dated 2013)", "key": {"[1]": {"molecular_target": "PIK4Ca (Homo sapiens, UniProt P42356)", "sequence (P42356 whole entry)": "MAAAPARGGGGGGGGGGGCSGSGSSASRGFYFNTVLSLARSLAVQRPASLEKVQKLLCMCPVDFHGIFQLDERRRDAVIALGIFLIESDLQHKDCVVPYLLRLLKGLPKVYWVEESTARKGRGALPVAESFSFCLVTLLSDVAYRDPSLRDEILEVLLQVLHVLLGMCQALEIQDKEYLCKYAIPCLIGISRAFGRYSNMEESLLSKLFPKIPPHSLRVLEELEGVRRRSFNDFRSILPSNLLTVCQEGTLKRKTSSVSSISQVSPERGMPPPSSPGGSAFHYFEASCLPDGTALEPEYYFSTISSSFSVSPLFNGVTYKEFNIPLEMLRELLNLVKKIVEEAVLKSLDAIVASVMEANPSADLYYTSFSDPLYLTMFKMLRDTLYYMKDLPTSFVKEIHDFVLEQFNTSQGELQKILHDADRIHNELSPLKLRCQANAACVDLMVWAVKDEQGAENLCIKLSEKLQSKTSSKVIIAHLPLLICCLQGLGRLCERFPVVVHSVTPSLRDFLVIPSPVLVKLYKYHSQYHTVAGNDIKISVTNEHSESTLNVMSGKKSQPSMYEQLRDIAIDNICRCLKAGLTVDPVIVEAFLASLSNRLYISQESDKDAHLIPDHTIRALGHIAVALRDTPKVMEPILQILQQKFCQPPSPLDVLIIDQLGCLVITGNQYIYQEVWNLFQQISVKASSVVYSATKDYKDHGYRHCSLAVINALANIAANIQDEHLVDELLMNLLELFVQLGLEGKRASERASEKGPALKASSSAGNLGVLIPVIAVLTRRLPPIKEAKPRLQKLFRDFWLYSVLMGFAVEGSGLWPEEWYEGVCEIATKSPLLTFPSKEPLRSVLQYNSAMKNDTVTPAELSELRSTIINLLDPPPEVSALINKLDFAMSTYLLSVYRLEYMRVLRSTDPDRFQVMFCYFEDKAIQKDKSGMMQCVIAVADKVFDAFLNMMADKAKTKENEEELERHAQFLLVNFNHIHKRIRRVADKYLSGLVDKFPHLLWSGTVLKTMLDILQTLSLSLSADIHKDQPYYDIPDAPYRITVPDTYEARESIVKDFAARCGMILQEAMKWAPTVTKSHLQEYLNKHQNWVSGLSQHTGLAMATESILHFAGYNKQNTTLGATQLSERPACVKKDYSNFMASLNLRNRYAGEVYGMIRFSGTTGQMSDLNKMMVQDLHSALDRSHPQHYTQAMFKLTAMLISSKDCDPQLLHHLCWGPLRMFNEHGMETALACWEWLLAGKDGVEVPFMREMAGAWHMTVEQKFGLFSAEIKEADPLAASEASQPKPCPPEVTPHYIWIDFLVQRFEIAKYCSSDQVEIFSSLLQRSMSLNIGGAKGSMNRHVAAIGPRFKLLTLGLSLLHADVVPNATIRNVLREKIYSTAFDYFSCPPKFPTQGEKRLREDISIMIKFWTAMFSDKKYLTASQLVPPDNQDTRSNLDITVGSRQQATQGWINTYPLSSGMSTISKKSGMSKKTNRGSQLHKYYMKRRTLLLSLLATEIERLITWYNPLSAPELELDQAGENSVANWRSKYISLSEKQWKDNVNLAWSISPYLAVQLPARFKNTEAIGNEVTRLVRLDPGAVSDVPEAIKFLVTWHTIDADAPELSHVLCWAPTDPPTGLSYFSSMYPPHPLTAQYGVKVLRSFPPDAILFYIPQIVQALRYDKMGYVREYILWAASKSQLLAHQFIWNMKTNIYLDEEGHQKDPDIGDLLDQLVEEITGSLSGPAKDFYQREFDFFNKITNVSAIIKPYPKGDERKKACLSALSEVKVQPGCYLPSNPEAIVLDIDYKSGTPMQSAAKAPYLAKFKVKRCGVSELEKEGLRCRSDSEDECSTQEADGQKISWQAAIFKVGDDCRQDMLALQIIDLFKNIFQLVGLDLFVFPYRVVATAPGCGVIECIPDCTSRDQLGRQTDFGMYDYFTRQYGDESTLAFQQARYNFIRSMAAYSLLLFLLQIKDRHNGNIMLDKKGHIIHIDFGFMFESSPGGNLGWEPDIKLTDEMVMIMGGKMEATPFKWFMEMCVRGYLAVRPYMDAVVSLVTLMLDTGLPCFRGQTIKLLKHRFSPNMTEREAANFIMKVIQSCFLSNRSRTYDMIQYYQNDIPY", "experiment": "Kinobeads competition binding, immobilized CZC31207, HeLa/placenta lysate mix", "design": "endogenous in cells", "conditions": "10 μM free compound; mixed HeLa and placenta cell lysates", "method": "(§1) To the first aliquot of cell lysate 10 μM of the free compound (CZC31207) was added and allowed to bind to proteins in the lysate. Then the affinity matrix with the immobilized compound (Example 1) was added to capture proteins that were not interacting with the previously added free compound. Beads were separated from the lysate and bead bound proteins were eluted in SDS sample buffer and subsequently separated by SDS-Polyacrylamide gel electrophoresis (FIG. 4). Suitable gel bands were cut out and subjected to in-gel proteolytic digestion with trypsin. The second lysate aliquot was processed identically, however no free compound was added (DMSO solvent control). Peptides originating from samples 1 and 2 were labeled with iTRAQ reagents (iTRAQ 115 and iTRAQ 117) and the combined samples were analyzed with a nano-flow liquid chromatography system coupled online to a tandem mass spectrometer (LC-MS/MS) experiment followed by iTRAQ reporter ion quantification in the MS/MS spectra (Ross et al., 2004. Mol. Cell. Proteomics 3(12):1154-1169). Further experimental protocols can be found in WO2006/134056 and a previous publication (Bantscheff et al., 2007. Nature Biotechnology 25, 1035-1044).\n(§2) Cells were homogenized in a Potter S homogenizer in lysis buffer: 50 mM Tris-HCl, 0.8% NP40, 5% glycerol, 150 mM NaCl, 1.5 mM MgCl2, 25 mM NaF, 1 mM sodium vanadate, 1 mM DTT, pH 7.5. One complete EDTA-free tablet (protease inhibitor cocktail, Roche Diagnostics, 1 873 580) per 25 ml buffer was added. The material was dounced 20 times using a mechanized POTTER S, transferred to 50 ml falcon tubes, incubated for 30 minutes rotating at 4° C. and spun down for 10 minutes at 20,000×g at 4° C. (10,000 rpm in Sorvall SLA600, precooled). The supernatant was transferred to an ultracentrifuge (UZ)-polycarbonate tube (Beckmann, 355654) and spun for 1 hour at 145.000×g at 4° C. (40.000 rpm in Ti50.2, precooled). The supernatant was transferred again to a fresh 50 ml falcon tube, the protein concentration was determined by a Bradford assay (BioRad) and samples containing 50 mg of protein per aliquot were prepared. The samples were immediately used for experiments or frozen in liquid nitrogen and stored frozen at −80° C.\n(§3) Sepharose-beads with the immobilized compound (100 μl beads per pull-down experiment) were equilibrated in lysis buffer and incubated with a cell lysate sample containing 50 mg of protein on an end-over-end shaker (Roto Shake Genie, Scientific Industries Inc.) for 2 hours at 4° C. Beads were collected, transferred to Mobicol-columns (MoBiTech 10055) and washed with 10 ml lysis buffer containing 0.4% NP40 detergent, followed by 5 ml lysis buffer containing 0.2% detergent. To elute bound proteins, 60 μl 2×SDS sample buffer was added to the column. […]"}, "[2]": {"molecular_target": "T1, MAP3K1 (Homo sapiens, UniProt Q13233)", "T1 sequence (Q13233 whole entry)": "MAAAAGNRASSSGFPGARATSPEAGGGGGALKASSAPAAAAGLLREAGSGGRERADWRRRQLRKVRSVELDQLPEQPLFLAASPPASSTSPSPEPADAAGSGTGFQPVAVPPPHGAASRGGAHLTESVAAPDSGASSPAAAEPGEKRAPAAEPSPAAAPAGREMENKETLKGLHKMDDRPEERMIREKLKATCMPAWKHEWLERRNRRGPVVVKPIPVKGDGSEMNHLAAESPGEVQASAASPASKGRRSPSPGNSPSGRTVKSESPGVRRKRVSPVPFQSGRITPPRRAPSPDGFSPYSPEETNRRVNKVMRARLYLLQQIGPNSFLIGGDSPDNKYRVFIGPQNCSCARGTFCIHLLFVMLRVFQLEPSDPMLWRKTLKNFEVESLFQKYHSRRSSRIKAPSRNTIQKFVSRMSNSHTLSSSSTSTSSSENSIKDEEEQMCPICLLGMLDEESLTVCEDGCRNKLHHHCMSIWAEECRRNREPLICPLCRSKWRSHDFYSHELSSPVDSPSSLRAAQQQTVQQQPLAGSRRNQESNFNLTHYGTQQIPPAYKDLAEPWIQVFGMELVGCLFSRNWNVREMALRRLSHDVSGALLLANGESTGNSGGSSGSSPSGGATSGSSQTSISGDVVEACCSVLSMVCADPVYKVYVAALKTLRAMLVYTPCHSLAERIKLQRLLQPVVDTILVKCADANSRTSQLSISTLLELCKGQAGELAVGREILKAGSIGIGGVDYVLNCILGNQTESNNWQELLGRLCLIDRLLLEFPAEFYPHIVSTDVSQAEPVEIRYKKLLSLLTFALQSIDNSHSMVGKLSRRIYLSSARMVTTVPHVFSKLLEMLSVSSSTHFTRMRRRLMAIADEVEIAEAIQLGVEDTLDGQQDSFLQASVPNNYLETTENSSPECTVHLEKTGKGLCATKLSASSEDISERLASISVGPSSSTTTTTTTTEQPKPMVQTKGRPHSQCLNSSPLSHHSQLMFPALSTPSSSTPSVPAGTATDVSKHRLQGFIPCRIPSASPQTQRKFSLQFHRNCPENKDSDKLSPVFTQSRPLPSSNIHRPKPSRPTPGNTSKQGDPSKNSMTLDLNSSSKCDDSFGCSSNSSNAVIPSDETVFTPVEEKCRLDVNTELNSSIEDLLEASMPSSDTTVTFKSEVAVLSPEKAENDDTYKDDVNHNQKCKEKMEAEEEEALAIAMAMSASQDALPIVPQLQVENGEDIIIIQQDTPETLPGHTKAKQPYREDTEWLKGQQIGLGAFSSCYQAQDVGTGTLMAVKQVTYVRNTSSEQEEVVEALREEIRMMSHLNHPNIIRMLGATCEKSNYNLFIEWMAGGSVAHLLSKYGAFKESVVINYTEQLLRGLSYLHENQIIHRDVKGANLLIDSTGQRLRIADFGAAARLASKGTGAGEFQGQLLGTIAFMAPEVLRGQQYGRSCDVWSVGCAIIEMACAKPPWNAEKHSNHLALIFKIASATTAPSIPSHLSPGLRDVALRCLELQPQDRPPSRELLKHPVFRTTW", "experiment": "Kinobeads competition binding, immobilized CZC31207, HeLa/placenta lysate mix", "design": "endogenous in cells", "conditions": "10 μM free compound; mixed HeLa and placenta cell lysates", "method": "as §1, §2, §3"}, "[3]": {"molecular_target": "T2, BCKDK (Homo sapiens, UniProt O14874)", "experiment": "Kinobeads competition binding, immobilized CZC31207, HeLa/placenta lysate mix", "design": "endogenous in cells", "conditions": "10 μM free compound; mixed HeLa and placenta cell lysates", "method": "as §1, §2, §3"}, "[4]": {"molecular_target": "T1, MAP3K1", "experiment": "Kinobeads competition binding, immobilized CZC31207, Jurkat/Ramos lysate mix", "design": "endogenous in cells; host or cells: mixed lysate of Jurkat and Ramos cells", "conditions": "10 μM free compound; mix of Jurkat and Ramos cell lysates", "method": "(§4) To the first aliquot of cell lysate 10 μM of the free compound CZC31207 was added and allowed to bind to proteins in the lysate. Then the affinity matrix with the immobilized compound was added to capture proteins that were not interacting with the previously added free compound. Beads were separated from the lysate and bead bound proteins were eluted in SDS sample buffer and subsequently separated by SDS-Polyacrylamide gel electrophoresis (FIG. 5). Suitable gel bands were cut out and subjected to in-gel proteolytic digestion with trypsin. The second lysate aliquot was processed identically, however no free compound was added (DMSO solvent control). Peptides originating from samples 1 and 2 were labeled with iTRAQ reagents (iTRAQ 114 and iTRAQ 116) and the combined samples were analyzed with a nano-flow liquid chromatography system coupled online to a tandem mass spectrometer (LC-MS/MS) experiment followed by iTRAQ reporter ion quantification in the MS/MS spectra as described in Example 2.\n(§5) Jurkat cells (ATCC number T1B-152) and Ramos cells (ATCC number CRL-1596) were either obtained from an external supplier (CIL SA, Mons, Belgium) or grown in one litre Spinner flasks (Integra Biosciences, #182101) in suspension in RPMI 1640 medium (Invitrogen, #21875-034) supplemented with 10% Fetal Bovine Serum (Invitrogen, #10270-106) at a density between 0.2×10^6 and 1.0×10^6 cells/ml. […]"}, "[5]": {"molecular_target": "T2, BCKDK", "experiment": "Kinobeads competition binding, immobilized CZC31207, Jurkat/Ramos lysate mix", "design": "endogenous in cells; host or cells: mixed lysate of Jurkat and Ramos cells", "conditions": "10 μM free compound; mix of Jurkat and Ramos cell lysates", "method": "as §4, §5"}}, "data": [{"molecule": "CC(C)NS(=O)(=O)c1cncc(-c2ccc3nc(NC(=O)NCCN)nn3c2)c1", "note": "[CZC31207, 5-(2-(3-(2-aminoethyl)ureido)-[1,2,4]triazolo[1,5-a]pyridin-6-yl)-N-isopropylpyridine-3-sulfonamide]", "values": [{"measurement": "Competition % PIK4Ca", "setting": "[1]", "value": 39.9, "unit": "%"}, {"measurement": "Competition % MAP3K1", "setting": "[2]", "value": 13.3, "unit": "%"}, {"measurement": "Competition % BCKDK", "setting": "[3]", "value": 8, "unit": "%"}, {"measurement": "Competition % MAP3K1", "setting": "[4]", "value": 14.1, "unit": "%"}, {"measurement": "Competition % BCKDK", "setting": "[5]", "value": "−0.1", "unit": "%"}]}]}
